# Assay results published in patent publication US5399487A, “6-peptidylamino-1-naphthalenesulfonamides useful as fluorogenic proteolytic enzyme substrates” (Haematologic Technologies, Inc., priority 1993, dated 1995).
# How the values were obtained:
# Assay type in all cases: biochemical
# [1] = target: activated protein C (APC) (Homo sapiens, UniProt P04070); experiment: Fluorogenic enzyme assay (Example 5); set-up: key to Kinetic constants, APC (symbol b): slow substrate hydrolysis, no kinetic constants calculated
# Method in brief: (§1)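 Kinetic constants (Km, kcat) of substrate hydrolysis are derived by fitting initial rates to the Michaelis-Menten equation. Assays use TBS at pH 7.4 and 22° C, with fluorescence of the released naphthalenesulfonamide fluorophore recorded at 352/470 nm.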
# factor VIIa [2] = target: T1, factor VIIa (Homo sapiens, UniProt P08709); experiment: Factor VIIa substrate hydrolysis in presence and absence of tissue factor (FIG. 2)
# T1 construct: directly measure the enzymatic activity of factor VIIa in the presence and absence of tissue factor and phospholipid
# T1 sequence (P08709 213-466 limits assumed): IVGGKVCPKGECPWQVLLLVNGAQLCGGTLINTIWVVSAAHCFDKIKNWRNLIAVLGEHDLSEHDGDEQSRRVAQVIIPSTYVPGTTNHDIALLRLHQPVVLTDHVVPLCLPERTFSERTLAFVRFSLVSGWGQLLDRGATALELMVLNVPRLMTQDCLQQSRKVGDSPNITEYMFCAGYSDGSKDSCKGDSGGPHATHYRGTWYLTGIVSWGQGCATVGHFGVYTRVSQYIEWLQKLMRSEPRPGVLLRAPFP
# T1 sequence (P08709 61-212 limits assumed): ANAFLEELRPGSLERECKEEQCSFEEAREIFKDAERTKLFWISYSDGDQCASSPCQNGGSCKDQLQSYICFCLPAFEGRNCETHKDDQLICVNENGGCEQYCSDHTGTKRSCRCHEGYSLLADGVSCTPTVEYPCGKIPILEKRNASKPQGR
# Description: (§2) When coupled to methanesulfonyl-D-leucinyl-glycinyl-arginine(Mes-D-Leu-Gly-Arg), 6-amino-1-(N,N-diethyl)napthalenesulfonamide the resulting substrate yielded significant reactivity with factor VIIa. This substrate was sufficiently reactive with factor VIIa to allow reliable quantitation of factor VIIa activity at concentrations of about 10^-9 M. Further, this substrate was useful for the measurement of factor VIIa activity when it was bound to its co-factor protein tissue factor. The interaction of tissue factor with factor VIIa enhanced the factor VIIa dependent substrate hydrolysis by 120 fold. Thus, the invention provides unique substrates suitable for measuring both the activity of factor VIIa directly and in complex reactions involving the interaction between tissue factor and factor VIIa.
# (§3) The binding of factor VIIa to tissue factor was analyzed by factor VIIa substrate hydrolysis when complexed with tissue factor. Tissue factor was relipidated into PC or PCPS vesicles as described above. The final concentration of tissue factor and phospholipid used for all binding studies was 2 nM and 200 μM respectively. In control experiments where tissue factor was in excess, 50 nM tissue factor and 200 μM PCPS vesicles were used. Recombinant factor VIIa (0.5 to 20 nM) was added to assembled TF/phospholipid complex and incubated for 15 minutes at 37° C. in HBS. The reaction was started by the addition of substrate (40 μM final) and the rate of substrate hydrolysis as reported by an increase in fluorescent intensity was recorded as described above in Example 5. The instrument was standardized daily using a 1 μM stock of the 6-amino-1-(N,N-diethyl)napthalenesulfonamide in HBS at 37° C. as described above.
# (§4) The increase in the rate of factor VIIa substrate hydrolysis, both in the presence and absence of tissue factor, is linear over the concentration range tested, as shown in FIG. 2. […] In FIG. 2, filled triangles represent the rate of substrate hydrolysis as a function of increasing factor VIIa concentrations with an excess of tissue factor ([…]) in the assay. […]
# factor VIIa [3] = experiment: as above; settings: with vs without tissue factor
# Description: as §2, §3, §4
# [4] = target: tissue plasminogen activator (t-PA) (Homo sapiens, UniProt P00750); experiment: Fluorogenic enzyme assay (Example 5); settings: 100 nM enzyme, substrate 1 μM
# Method in brief: as §1
# urokinase (u-PA) = urokinase (u-PA) (Homo sapiens, UniProt P00749); experiment: Fluorogenic enzyme assay (Example 5); settings: 100 nM enzyme, substrate 1 μM
# plasmin (Plm) = plasmin (Plm) (Homo sapiens, UniProt P00747); experiment: Fluorogenic enzyme assay (Example 5); settings: 10 nM enzyme, substrate 1 μM
# Method in brief: as §1
# thrombin (IIa) = target: T2, thrombin (IIa) (Homo sapiens, UniProt P00734); experiment: Fluorogenic enzyme assay (Example 5)
# T2 construct: 0.5 nM human thrombin (IIa)
# Method in brief: as §1
# Chain of activated protein C (APC) (P04070 212-461 limits assumed): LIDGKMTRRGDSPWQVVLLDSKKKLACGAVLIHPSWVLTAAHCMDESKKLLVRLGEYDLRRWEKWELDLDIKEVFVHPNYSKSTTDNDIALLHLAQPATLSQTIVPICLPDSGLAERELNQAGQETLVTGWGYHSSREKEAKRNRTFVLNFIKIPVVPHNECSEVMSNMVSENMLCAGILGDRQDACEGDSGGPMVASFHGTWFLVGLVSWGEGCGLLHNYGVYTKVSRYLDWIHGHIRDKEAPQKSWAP
# Chain of activated protein C (APC) (P04070 43-197 limits assumed): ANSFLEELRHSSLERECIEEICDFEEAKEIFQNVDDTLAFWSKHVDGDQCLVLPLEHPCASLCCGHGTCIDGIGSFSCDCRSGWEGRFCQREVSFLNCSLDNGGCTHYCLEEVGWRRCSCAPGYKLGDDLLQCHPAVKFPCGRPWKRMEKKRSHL
# Chain of plasmin (Plm) (P00747 581-810 limits assumed, species assumed): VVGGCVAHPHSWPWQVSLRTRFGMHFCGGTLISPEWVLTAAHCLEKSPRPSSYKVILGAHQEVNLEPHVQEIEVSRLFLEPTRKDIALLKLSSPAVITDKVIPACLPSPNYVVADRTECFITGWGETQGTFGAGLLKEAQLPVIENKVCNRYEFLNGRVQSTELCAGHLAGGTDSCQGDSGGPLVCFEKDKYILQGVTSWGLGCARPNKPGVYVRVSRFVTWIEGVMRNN
# Chain of plasmin (Plm) (P00747 97-580 limits assumed, species assumed): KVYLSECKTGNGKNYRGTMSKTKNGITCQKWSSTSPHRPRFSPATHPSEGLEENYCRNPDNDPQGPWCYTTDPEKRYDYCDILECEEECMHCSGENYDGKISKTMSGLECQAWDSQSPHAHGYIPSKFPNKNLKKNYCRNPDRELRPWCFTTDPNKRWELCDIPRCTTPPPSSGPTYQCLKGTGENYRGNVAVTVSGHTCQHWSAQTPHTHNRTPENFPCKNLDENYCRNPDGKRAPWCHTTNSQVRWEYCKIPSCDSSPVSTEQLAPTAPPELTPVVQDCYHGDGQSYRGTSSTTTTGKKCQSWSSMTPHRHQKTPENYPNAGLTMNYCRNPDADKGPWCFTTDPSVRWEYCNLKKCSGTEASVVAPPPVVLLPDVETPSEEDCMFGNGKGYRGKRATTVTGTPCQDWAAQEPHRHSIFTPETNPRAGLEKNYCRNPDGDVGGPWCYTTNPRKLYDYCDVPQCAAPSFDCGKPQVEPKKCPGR
# Chain of tissue plasminogen activator (t-PA) (P00750 36-562, species assumed): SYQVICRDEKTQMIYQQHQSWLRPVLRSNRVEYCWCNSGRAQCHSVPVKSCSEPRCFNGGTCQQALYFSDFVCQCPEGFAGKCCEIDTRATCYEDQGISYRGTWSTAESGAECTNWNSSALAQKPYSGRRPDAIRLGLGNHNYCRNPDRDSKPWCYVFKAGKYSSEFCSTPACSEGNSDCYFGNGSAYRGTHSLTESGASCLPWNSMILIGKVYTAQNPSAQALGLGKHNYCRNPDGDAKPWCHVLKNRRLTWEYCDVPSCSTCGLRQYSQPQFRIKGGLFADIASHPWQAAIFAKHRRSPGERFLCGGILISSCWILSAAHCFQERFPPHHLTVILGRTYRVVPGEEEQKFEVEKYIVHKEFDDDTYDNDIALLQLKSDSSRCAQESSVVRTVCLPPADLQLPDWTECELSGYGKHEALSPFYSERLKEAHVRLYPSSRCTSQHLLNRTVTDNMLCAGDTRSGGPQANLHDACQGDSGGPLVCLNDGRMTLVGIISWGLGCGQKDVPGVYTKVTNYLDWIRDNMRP
smiles,measurement,setting,value
"CCN(CC)S(=O)(=O)c1cccc2cc(NC(=O)[C@H](CCCNC(=N)N)NC(=O)CNC(=O)[C@@H](CC(C)C)NS(C)(=O)=O)ccc12 [MesD-LPR-ANSN(C2 H5)2, 6-(Mes-D-Leu-Gly-Arg)amino-1-(N,N-diethyl)napththalenesulfonamide]","TIME TO 10% HYDROLYSIS (HOURS), APC","[1]; 100 nM enzyme (footnote b), substrate 1 μM",0.5 h
same,"Kinetic constants, APC (symbol b)",[1]; Table 9,b
same,factor VIIa concentration allowing reliable quantitation of factor VIIa activity,factor VIIa [2],about 10^-9 M
same,enhancement of factor VIIa dependent substrate hydrolysis by tissue factor,"factor VIIa [3]; listed as 6-(Mes-D-Leu-Gly-Arg)amino-1-(N,N-diethyl)naphthalenesulfonamide",120 fold
same,enhancement of factor VIIa dependent substrate hydrolysis by tissue factor,factor VIIa [3]; listed as factor VIIa substrate,> 100 fold
same,"TIME TO 10% HYDROLYSIS (HOURS), t-PA",[4],2 h
same,"TIME TO 10% HYDROLYSIS (HOURS), u-PA",urokinase (u-PA),2 h
same,"TIME TO 10% HYDROLYSIS (HOURS), Plm",plasmin (Plm),1 h
same,"TIME TO 10% HYDROLYSIS (HOURS), IIa","thrombin (IIa); 10 nM enzyme, substrate 1 μM",0.33 h
same,Km,thrombin (IIa); Table 9,31.6 µM
same,"kcat /Km, IIa",thrombin (IIa); Table 9,20000 M⁻¹ s⁻¹
same,"kcat, IIa",thrombin (IIa); Table 9,0.63 s⁻¹
